4 molecules from ChEMBL document CHEMBL1201862, “PubChem BioAssay data set” (2004) can be followed below.

Active and inactive are the calls of the source. A value given as a limit tells only on which side of the number the result lay.

Test [1] deals with E3 ubiquitin-protein ligase Mdm2 (Homo sapiens, UniProt Q00987). In words: enhancers of MDM2-luciferase reporter signal, concentration-effect titration, project on inhibitors of MDM2 ubiquitin ligase, cellular assay, luminescent readout, 384-well plate format (AID 1394).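 Note: MDM2 E3 inhibitors raise luminescence so EC50 is for signal enhancement.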 It is filed as functional. (In general: In a reporter assay the amount or activity of a reporter protein is the signal.)

The target in a further test is T1, Protein RecA (Mycobacterium tuberculosis, UniProt P9WHJ3).
T1 sequence (P9WHJ3 whole entry): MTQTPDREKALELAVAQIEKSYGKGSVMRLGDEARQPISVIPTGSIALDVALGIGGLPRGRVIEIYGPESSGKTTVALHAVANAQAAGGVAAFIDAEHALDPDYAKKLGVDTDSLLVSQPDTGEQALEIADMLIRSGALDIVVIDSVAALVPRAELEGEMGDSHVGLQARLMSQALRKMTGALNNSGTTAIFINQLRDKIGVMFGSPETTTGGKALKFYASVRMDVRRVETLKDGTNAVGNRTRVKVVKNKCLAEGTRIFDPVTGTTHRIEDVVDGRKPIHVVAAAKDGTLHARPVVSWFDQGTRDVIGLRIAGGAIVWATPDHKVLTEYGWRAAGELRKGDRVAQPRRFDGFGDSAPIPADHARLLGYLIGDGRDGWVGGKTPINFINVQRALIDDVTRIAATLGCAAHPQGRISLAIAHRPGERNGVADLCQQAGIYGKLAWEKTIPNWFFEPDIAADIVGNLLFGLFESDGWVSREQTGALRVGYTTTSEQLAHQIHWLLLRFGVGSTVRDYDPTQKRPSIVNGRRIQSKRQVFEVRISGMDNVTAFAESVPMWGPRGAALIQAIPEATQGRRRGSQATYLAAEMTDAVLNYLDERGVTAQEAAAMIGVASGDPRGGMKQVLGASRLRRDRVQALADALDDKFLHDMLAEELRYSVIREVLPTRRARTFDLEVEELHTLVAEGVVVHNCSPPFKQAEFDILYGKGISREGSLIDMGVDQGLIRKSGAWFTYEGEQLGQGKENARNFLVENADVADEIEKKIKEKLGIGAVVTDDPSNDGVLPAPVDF
Kind of test: Fluorescence Cell-Free Homogeneous Dose Retest to Identify Inhibitors of RecA-Intein Splicing Activity. [Related pubchem assays (depositor defined):AID2097, AID2223, AID489010, AID492950]. Type of test: functional.

Test [2] has as its target T2, Replicative DNA helicase DnaB (Mycobacterium tuberculosis, UniProt P9WMR3).
T2 sequence (P9WMR3 whole entry): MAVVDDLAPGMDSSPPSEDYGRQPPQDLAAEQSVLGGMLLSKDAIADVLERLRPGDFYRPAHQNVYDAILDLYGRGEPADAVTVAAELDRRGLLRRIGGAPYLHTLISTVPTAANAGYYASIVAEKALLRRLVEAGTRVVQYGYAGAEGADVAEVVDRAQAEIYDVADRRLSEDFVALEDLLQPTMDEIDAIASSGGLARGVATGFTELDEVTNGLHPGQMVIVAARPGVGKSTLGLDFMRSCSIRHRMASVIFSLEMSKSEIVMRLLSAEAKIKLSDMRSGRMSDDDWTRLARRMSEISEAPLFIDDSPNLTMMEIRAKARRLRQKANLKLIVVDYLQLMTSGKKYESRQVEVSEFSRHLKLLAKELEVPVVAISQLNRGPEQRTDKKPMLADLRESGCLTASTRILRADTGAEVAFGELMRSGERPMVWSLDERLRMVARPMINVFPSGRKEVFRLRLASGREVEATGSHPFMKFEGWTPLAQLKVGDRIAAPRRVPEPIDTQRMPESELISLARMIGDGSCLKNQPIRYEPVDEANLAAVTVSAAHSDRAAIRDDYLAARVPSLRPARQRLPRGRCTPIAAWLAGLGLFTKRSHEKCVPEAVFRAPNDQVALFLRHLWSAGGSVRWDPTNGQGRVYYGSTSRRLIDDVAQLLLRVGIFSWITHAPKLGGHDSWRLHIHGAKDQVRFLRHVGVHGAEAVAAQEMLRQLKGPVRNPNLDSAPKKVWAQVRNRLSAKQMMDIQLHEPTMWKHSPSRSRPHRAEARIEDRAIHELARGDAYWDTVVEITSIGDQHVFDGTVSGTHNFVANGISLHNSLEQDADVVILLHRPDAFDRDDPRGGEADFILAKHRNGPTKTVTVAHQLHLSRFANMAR
In words: DnaB intein splicing inhibitors, dose response, biochemical, cell-free fluorescence (AID 449749). Type of test: functional.

For another test, the target named is Transthyretin (Homo sapiens, UniProt P02766). Kind of test: Luminescence-based cell-based high throughput dose response assay to identify activators of Transthyretin (TTR) transcription. Type of test: functional.
A short description of test [3]: P. falciparum late gametocyte killing, dose response, luminescence (AID 1117278).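 Note: gametocytes exposed to compound for 24 hours.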 Type of test: functional, cell-based.
Test [4] is described as follows: Jurkat T cell cytotoxicity, dose response, cytotoxicity control for P. falciparum gametocyte viability project, luminescence (AID 1117277).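 Note: potency reflects loss of cellular ATP meaning fewer viable cells.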 Type of test: functional, cell-based.
Test [5] concerns the target Voltage-gated inwardly rectifying potassium channel KCNH2 (Homo sapiens, UniProt Q12809). Kind of test: hERG protection from proarrhythmic block, potency, dose response, cell-based, thallium flux (AID 2121). Type of test: ADME. Background: Block of hERG is tested as a sign of cardiac risk.

Sequence of E3 ubiquitin-protein ligase Mdm2 (Q00987 whole entry): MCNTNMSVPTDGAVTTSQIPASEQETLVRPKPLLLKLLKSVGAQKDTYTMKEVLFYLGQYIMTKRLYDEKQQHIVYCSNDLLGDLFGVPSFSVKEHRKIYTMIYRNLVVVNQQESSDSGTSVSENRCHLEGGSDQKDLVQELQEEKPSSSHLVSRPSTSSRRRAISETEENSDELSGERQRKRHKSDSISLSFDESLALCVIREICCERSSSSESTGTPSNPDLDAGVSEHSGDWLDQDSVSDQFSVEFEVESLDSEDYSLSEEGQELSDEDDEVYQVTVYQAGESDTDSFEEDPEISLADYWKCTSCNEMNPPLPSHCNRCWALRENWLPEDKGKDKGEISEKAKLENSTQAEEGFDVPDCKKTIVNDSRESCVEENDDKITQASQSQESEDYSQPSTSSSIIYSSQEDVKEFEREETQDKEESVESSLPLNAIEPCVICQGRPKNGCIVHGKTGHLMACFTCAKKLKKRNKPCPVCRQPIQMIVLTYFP
Sequence of Voltage-gated inwardly rectifying potassium channel KCNH2 (Q12809 whole entry): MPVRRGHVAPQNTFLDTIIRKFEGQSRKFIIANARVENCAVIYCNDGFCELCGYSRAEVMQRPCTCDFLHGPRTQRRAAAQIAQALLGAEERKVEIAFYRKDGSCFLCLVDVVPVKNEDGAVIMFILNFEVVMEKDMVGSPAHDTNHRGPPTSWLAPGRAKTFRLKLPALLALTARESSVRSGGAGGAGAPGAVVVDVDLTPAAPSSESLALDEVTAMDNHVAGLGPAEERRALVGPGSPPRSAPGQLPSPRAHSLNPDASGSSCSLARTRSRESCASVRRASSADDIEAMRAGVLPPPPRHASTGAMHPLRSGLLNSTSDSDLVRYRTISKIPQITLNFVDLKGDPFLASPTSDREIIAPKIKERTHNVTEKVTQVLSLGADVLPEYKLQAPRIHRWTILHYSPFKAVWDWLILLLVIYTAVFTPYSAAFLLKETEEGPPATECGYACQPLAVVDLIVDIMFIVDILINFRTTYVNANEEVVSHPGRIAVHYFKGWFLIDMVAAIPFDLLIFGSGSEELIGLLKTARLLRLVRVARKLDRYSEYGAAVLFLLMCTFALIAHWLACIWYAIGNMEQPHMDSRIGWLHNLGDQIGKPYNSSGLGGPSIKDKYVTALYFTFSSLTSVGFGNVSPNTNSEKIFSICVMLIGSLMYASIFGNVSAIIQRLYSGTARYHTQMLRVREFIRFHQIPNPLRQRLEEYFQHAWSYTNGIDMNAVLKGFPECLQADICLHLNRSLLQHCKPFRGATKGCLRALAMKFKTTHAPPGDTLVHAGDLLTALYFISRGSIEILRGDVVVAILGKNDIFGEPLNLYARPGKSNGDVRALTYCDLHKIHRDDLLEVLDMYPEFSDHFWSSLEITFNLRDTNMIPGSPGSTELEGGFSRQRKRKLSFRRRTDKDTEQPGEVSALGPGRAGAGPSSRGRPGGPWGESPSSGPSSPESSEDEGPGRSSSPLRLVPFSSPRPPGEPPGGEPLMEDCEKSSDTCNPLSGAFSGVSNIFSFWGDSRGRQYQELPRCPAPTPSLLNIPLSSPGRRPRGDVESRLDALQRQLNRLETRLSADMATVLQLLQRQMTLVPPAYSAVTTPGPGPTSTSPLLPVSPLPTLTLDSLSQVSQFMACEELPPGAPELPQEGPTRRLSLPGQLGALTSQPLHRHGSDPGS

One may read the EC50 as the midpoint of the concentration-response curve. Take `CC(=O)Nc1ccc(S(=O)(=O)N2CCN=C2SCc2cccnc2)cc1`: the EC50 in test [1] was 9.39 µM (not active).
The AC50 is the concentration at which the activity in the assay is half-maximal. Consider `COc1ccc2[nH]c3c(Cl)ncnc3c2c1`, for which the EC50 at Protein RecA was > 380 µM (inactive); on Transthyretin, > 167 µM (inactive). Also, in test [2], the AC50 is > 380 µM (inactive).
For orientation: IC50 means the midpoint of a concentration-inhibition curve. Consider `NC(=O)C1CCN(C(=O)CN2CCc3ccccc32)CC1`, for which the IC50 in test [3] is > 109 µM (inactive); in test [4], > 83.3 µM (inactive).
Consider `COc1ccc(C(=O)NNC(=O)C(=O)Nc2ccc(C)c(Cl)c2)cc1`, for which the EC50 in test [5] is 0.06 µM (active).
